ChEMBL document CHEMBL1909046, “DrugMatrix in vitro pharmacology data”
pIC50, pKi: −log10 of the molar value.

Tests used:
Interstitial collagenase = target: T1, Interstitial collagenase (Homo sapiens, UniProt P03956); assay: biochemical; type: tissue-based, Rheumatoid synovial fibroblasts;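 note: MMP-1 enzyme inhibition assay using a peptide substrate; in other assays of this panel Not Active means under 50% inhibition at 10 µM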
T1 sequence (P03956 whole entry): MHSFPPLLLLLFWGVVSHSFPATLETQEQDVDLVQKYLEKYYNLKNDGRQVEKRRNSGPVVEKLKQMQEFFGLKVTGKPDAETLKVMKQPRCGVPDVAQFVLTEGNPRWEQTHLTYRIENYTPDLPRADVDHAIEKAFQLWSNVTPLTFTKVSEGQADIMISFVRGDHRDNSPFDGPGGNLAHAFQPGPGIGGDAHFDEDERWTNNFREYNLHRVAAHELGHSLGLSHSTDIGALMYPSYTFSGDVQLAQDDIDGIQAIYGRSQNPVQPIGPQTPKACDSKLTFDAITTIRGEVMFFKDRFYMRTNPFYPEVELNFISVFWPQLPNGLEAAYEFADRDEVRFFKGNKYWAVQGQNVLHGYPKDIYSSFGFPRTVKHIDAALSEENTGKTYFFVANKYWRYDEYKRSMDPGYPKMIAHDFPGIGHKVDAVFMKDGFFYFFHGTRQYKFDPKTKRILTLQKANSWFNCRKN

[1] = target: Mitogen-activated protein kinase 3 (Homo sapiens, UniProt P27361); assay: DRUGMATRIX: Protein Serine/Threonine Kinase, ERK1 enzyme inhibition (substrate: Myelin Basic Protein); parameters: species or system Escherichia coli; details: Not Active = under 50% inhibition at 10 µM
Mitogen-activated protein kinase 3, sequence (P27361 whole entry): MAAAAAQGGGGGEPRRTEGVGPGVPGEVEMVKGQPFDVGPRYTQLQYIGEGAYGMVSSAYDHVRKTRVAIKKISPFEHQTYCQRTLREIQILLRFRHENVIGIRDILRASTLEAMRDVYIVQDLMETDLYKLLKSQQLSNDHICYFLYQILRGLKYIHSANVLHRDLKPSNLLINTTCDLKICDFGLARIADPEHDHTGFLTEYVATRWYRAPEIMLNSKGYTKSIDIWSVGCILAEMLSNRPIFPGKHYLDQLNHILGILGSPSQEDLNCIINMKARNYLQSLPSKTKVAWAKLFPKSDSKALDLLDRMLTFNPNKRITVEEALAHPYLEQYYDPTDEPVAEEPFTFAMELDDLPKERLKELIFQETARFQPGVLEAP

[2] = target: T2, 5-hydroxytryptamine receptor 1A (Rattus norvegicus, UniProt P19327); type: cell membranes, CHO-K1, Membrane; details: for pIC50: read-out: IC50; for pKi: read-out: Ki; for IC50: cho-k1; for all read-outs here: in other assays of this panel Not Active means under 50% inhibition at 10 µM
T2 sequence (P19327 whole entry): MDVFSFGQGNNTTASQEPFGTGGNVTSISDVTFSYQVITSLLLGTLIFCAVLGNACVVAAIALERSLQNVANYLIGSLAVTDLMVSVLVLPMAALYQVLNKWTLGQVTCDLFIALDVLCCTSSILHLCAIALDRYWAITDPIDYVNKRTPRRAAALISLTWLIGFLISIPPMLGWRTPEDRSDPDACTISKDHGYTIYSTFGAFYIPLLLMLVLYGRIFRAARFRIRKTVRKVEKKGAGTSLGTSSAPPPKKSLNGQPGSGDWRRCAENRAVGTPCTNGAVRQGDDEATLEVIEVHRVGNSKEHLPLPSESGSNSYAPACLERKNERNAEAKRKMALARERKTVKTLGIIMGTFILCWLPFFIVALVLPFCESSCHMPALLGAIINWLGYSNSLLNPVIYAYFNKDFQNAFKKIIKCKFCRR

[3] = target: Aldo-keto reductase family 1 member B1 (Rattus norvegicus, UniProt P07943); assay: biochemical; type: tissue-based, Lens of camera-type eye;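 note: inhibition of aldose reductase enzyme activity, measured with DL-glyceraldehyde as the substrate; in other assays of this panel Not Active means under 50% inhibition at 10 µM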
[4] = target: Mitogen-activated protein kinase 1 (Homo sapiens, UniProt P28482); assay: DRUGMATRIX: Protein Serine/Threonine Kinase, ERK2 enzyme inhibition (substrate: Myelin Basic Protein); parameters: species or system Escherichia coli; details: Not Active = under 50% inhibition at 10 µM
Mitogen-activated protein kinase 1, sequence (P28482 whole entry): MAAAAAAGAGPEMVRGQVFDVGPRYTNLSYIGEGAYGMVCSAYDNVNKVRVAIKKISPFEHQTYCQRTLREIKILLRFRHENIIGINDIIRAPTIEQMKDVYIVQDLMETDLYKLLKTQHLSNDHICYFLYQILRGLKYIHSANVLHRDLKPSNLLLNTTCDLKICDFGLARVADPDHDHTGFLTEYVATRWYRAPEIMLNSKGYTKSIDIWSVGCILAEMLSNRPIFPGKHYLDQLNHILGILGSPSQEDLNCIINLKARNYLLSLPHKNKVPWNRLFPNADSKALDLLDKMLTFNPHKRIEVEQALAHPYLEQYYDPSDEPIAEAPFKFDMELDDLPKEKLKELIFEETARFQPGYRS

Insulin receptor = Insulin receptor (Rattus norvegicus, UniProt P15127); type: cell membranes, Wistar, Liver, Membrane; note: in other assays of this panel Not Active means under 50% inhibition at 10 µM
Insulin receptor, sequence (P15127 27-759 limits assumed): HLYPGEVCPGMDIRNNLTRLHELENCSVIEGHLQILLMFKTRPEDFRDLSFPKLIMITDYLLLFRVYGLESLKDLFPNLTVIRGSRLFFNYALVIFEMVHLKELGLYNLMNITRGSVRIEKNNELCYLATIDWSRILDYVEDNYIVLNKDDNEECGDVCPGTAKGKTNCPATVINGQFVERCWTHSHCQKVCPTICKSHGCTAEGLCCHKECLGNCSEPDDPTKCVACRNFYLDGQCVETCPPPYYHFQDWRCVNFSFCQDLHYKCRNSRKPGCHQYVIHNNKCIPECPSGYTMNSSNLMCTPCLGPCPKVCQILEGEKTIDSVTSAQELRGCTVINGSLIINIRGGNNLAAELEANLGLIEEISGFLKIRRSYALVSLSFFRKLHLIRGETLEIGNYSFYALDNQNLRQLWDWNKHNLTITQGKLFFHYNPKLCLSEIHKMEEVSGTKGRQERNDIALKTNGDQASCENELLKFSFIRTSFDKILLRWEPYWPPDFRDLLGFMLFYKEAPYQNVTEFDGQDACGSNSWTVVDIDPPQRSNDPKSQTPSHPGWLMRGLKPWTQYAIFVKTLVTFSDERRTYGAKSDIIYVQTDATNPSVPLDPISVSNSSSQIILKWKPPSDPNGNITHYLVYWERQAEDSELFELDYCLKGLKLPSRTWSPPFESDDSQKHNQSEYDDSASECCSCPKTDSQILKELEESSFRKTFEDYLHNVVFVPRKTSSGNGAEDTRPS
Insulin receptor, sequence (P15127 764-1383 limits assumed): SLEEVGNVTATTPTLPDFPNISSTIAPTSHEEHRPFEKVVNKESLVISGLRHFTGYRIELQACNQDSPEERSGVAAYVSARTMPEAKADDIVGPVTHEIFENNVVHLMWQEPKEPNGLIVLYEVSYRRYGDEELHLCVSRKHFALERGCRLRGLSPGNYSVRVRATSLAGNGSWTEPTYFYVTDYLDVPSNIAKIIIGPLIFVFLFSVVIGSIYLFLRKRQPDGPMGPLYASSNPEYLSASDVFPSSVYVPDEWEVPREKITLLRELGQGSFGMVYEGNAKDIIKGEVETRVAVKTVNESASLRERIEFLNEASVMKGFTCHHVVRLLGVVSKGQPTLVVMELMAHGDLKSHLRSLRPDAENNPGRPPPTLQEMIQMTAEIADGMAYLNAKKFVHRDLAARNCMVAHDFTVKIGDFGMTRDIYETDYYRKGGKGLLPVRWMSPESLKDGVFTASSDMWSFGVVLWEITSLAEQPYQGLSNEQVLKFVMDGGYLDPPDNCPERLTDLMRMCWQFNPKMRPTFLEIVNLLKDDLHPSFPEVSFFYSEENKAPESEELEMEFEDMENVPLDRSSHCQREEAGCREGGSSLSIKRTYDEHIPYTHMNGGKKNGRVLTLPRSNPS

Row | Structure (SMILES) | IC50 (Interstitial collagenase) | IC50 [1] | pIC50 [2] | pKi [2] | IC50 [3] | IC50 [4] | IC50 (Insulin receptor) | IC50 [2] | pIC50 ([3]; read-out: IC50) | pIC50 (Interstitial collagenase; read-out: IC50)
1 | CC(C)C[C@H]1C(=O)N2CCC[C@H]2[C@]2(O)O[C@](NC(=O)[C@@H]3C=C4c5cccc6[nH]cc(c56)C[C@H]4N(C)C3)(C(C)C)C(=O)N12 [ERGOCRYPTINE] | Not Active | Not Active | 8.58 | 8.82 | Not Active | Not Active | Not Active | – | – | –
2 | C[C@]12CC[C@@H]3c4ccc(O)cc4CC[C@H]3[C@@H]1C[C@@H](O)[C@@H]2O [ESTRIOL] | Not Active | Not Active | – | – | Not Active | Not Active | Not Active | Not Active | – | –
3 | C#C[C@]1(O)CC[C@H]2[C@@H]3CCC4=CC(=O)CC[C@]4(C)[C@H]3CC[C@@]21C [ETHISTERONE] | Not Active | Not Active | – | – | Not Active | Not Active | Not Active | Not Active | – | –
4 | CC(O)(P(=O)(O)O)P(=O)(O)O [ETIDRONIC ACID] | Not Active | Not Active | – | – | Not Active | Not Active | Not Active | Not Active | – | –
5 | CC(C)(C(=O)O)c1ccc(C(O)CCCN2CCC(C(O)(c3ccccc3)c3ccccc3)CC2)cc1 (stereo not given) [FEXOFENADINE] | Not Active | Not Active | – | – | Not Active | Not Active | Not Active | Not Active | – | –
6 | CN1CCN(c2c(F)cc3c(=O)c(C(=O)O)cn(CCF)c3c2F)CC1 [FLEROXACIN] | Not Active | Not Active | – | – | Not Active | Not Active | Not Active | Not Active | – | –
7 | O=c1[nH]c(=O)n([C@H]2C[C@H](O)[C@@H](CO)O2)cc1F [FLOXURIDINE] | Not Active | Not Active | – | – | Not Active | Not Active | Not Active | Not Active | – | –
8 | COC(=O)Nc1nc2cc(C(=O)c3ccc(F)cc3)ccc2[nH]1 [FLUBENDAZOLE] | Not Active | Not Active | – | – | Not Active | Not Active | Not Active | Not Active | – | –
9 | CC(=O)OCC(=O)[C@@]1(O)CC[C@H]2[C@@H]3CCC4=CC(=O)CC[C@]4(C)[C@@]3(F)[C@@H](O)C[C@@]21C [FLUDROCORTISONE ACETATE] | Not Active | Not Active | – | – | Not Active | Not Active | Not Active | Not Active | – | –
10 | CCOC(=O)c1ncn2c1CN(C)C(=O)c1cc(F)ccc1-2 [FLUMAZENIL] | Not Active | Not Active | – | – | Not Active | Not Active | Not Active | Not Active | – | –
11 | CC(=O)OCC(=O)[C@@]12OC(C)(C)O[C@@H]1C[C@H]1[C@@H]3C[C@H](F)C4=CC(=O)C=C[C@]4(C)[C@@]3(F)[C@@H](O)C[C@@]12C [FLUOCINONIDE] | Not Active | Not Active | – | – | Not Active | Not Active | Not Active | Not Active | – | –
12 | O=C(O)P(=O)(O)O [FOSCARNET] | Not Active | Not Active | – | – | Not Active | Not Active | Not Active | Not Active | – | –
13 | Cc1ccc(C)c(OCCCC(C)(C)C(=O)O)c1 [GEMFIBROZIL] | Not Active | Not Active | – | – | Not Active | Not Active | Not Active | Not Active | – | –
14 | O=c1c(-c2ccc(O)cc2)coc2cc(O)cc(O)c12 [GENISTEIN] | Not Active | Not Active | – | – | – | Not Active | Not Active | Not Active | 4.35 | –
15 | CCC1=C(C)CN(C(=O)NCCc2ccc(S(=O)(=O)NC(=O)N[C@H]3CC[C@H](C)CC3)cc2)C1=O [GLIMEPIRIDE] | Not Active | Not Active | – | – | Not Active | Not Active | Not Active | Not Active | – | –
16 | Nc1cc(-c2ccncc2)c[nH]c1=O [INAMRINONE] | Not Active | Not Active | – | – | Not Active | Not Active | Not Active | Not Active | – | –
17 | CCCCC1=NC2(CCCC2)C(=O)N1Cc1ccc(-c2ccccc2-c2nnn[nH]2)cc1 [IRBESARTAN] | Not Active | Not Active | – | – | Not Active | Not Active | Not Active | Not Active | – | –

Row | Structure (SMILES) | IC50 (Interstitial collagenase) | IC50 [1] | pIC50 [2] | pKi [2] | IC50 [3] | IC50 [4] | IC50 (Insulin receptor) | IC50 [2] | pIC50 ([3]; read-out: IC50) | pIC50 (Interstitial collagenase; read-out: IC50)
18 | CN1CCC(=C2c3ccccc3CC(=O)c3sccc32)CC1 [KETOTIFEN] | Not Active | Not Active | 5.60 | 5.84 | Not Active | Not Active | Not Active | – | – | –
19 | N[C@@H](Cn1ccc(=O)c(O)c1)C(=O)O [L-MIMOSINE] | Not Active | Not Active | – | – | Not Active | Not Active | Not Active | Not Active | – | –
20 | C[N+](C)(C)C[C@H](O)CC(=O)[O-] [LEVOCARNITINE] | Not Active | Not Active | – | – | Not Active | Not Active | Not Active | Not Active | – | –
21 | C[C@H]1COc2c(N3CCN(C)CC3)c(F)cc3c(=O)c(C(=O)O)cn1c23.C[C@H]1COc2c(N3CCN(C)CC3)c(F)cc3c(=O)c(C(=O)O)cn1c23.O [LEVOFLOXACIN] | Not Active | Not Active | – | – | Not Active | Not Active | Not Active | Not Active | – | –
22 | CCn1cc(C(=O)O)c(=O)c2cc(F)c(N3CCNC(C)C3)c(F)c21 (stereo not given) [LOMEFLOXACIN] | Not Active | Not Active | – | – | Not Active | Not Active | Not Active | Not Active | – | –
23 | CN1CCCC(CN2c3ccccc3Sc3ccccc32)C1 (stereo not given) [MEPAZINE] | Not Active | Not Active | – | – | Not Active | Not Active | Not Active | Not Active | – | –
24 | Cc1cccc(C)c1NC(=O)C1CCCCN1C (stereo not given) [MEPIVACAINE] | Not Active | Not Active | – | – | Not Active | Not Active | Not Active | Not Active | – | –
25 | CN(C)C(=N)NC(=N)N [METFORMIN] | Not Active | Not Active | – | – | Not Active | Not Active | Not Active | Not Active | – | –
26 | CC(C)(C)NCC(O)COc1cccc2c1CC(O)C(O)C2 (stereo not given) [NADOLOL] | Not Active | Not Active | – | – | Not Active | Not Active | Not Active | Not Active | – | –
27 | C[C@]12CC[C@H]3[C@@H](CCC4=CC(=O)CC[C@@H]43)[C@@H]1CC[C@@H]2O [NANDROLONE] | Not Active | Not Active | – | – | Not Active | Not Active | Not Active | Not Active | – | –
28 | C[C@@H]1C/C=C/C=C/C=C/C=C/[C@H](O[C@@H]2O[C@H](C)[C@@H](O)[C@H](N)[C@@H]2O)C[C@@H]2O[C@](O)(C[C@@H](O)C[C@H]3O[C@@H]3/C=C/C(=O)O1)C[C@H](O)[C@H]2C(=O)O [NATAMYCIN] | Not Active | Not Active | – | – | Not Active | Not Active | Not Active | Not Active | – | –
29 | CN(C)C(=O)Oc1cccc([N+](C)(C)C)c1.[Br-] [NEOSTIGMINE BROMIDE] | Not Active | Not Active | – | – | Not Active | Not Active | Not Active | Not Active | – | –
30 | NC(=O)c1cccnc1 [NIACINAMIDE] | Not Active | Not Active | – | – | Not Active | Not Active | Not Active | Not Active | – | –
31 | CS(=O)(=O)Nc1ccc([N+](=O)[O-])cc1Oc1ccccc1 [NIMESULIDE] | – | Not Active | – | – | Not Active | Not Active | Not Active | Not Active | – | 4.63
32 | CN1C(=O)CN=C(c2ccccc2)c2cc([N+](=O)[O-])ccc21 [NIMETAZEPAM] | Not Active | Not Active | – | – | Not Active | Not Active | Not Active | Not Active | – | –
33 | COc1ccc2c(c1OC)C(=O)O[C@@H]2[C@H]1c2c(cc3c(c2OC)OCO3)CCN1C [NOSCAPINE] | Not Active | Not Active | – | – | Not Active | Not Active | Not Active | Not Active | – | –
